Source: PubChem BioAssay AID248 (DTP/NCI, 2004)
Values joined by “and” are separate entries in the source; they are usually repeats but may differ in a detail not shown here. Identical values can stand only once. Toxic doses and inconclusive results are not listed. Cut-off read from the data, not from the text of the source: active = T/C of 150% or more; inactive = T/C below 125%.

Test system: L1210 leukemia ip in BDF1 mice, survival T/C
Experiment: NCI In Vivo Anticancer Drug Screen. Data for tumor model L1210 Leukemia (intraperitoneal) in B6D2F1 (BDF1) mice
Settings: endpoint: mean survival time, higher = longer survival
How it was run: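 Mice bearing the transplanted tumor received compound or vehicle. Survival of the treated group was divided by that of the vehicle-treated control group to give the ratio.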

[1] = dose: 100.0 mg/kg/injection, schedule: Q01DX001 (ip), vehicle: saline
[2] = dose: 50.0 mg/kg/injection, schedule: Q04DX002 (ip), vehicle: Klucel (hydroxypropylcellulose) (HPC)
[3] = dose: 100.0 mg/kg/injection, schedule: Q04DX002 (ip), vehicle: Klucel (hydroxypropylcellulose) (HPC)
[4] = dose: 100.0 mg/kg/injection, schedule: Q04DX003 (ip), vehicle: Klucel (hydroxypropylcellulose) (HPC)
[5] = dose: 200.0 mg/kg/injection, schedule: Q04DX003 (ip), vehicle: Klucel (hydroxypropylcellulose) (HPC)
[6] = dose: 200.0 mg/kg/injection, schedule: Q01DX001 (ip), vehicle: saline
[7] = dose: 400.0 mg/kg/injection, schedule: Q01DX001 (ip), vehicle: saline
[8] = dose: 200.0 mg/kg/injection, schedule: Q04DX002 (ip), vehicle: Klucel (hydroxypropylcellulose) (HPC)
[9] = dose: 400.0 mg/kg/injection, schedule: Q04DX002 (ip), vehicle: Klucel (hydroxypropylcellulose) (HPC)
[10] = dose: 100.0 mg/kg/injection, schedule: Q01DX009 (ip), vehicle: Klucel (hydroxypropylcellulose) (HPC)
[11] = dose: 200.0 mg/kg/injection, schedule: Q01DX009 (ip), vehicle: Klucel (hydroxypropylcellulose) (HPC)
[12] = dose: 400.0 mg/kg/injection, schedule: Q01DX009 (ip), vehicle: Klucel (hydroxypropylcellulose) (HPC)
[13] = dose: 400.0 mg/kg/injection, schedule: Q04DX003 (ip), vehicle: Klucel (hydroxypropylcellulose) (HPC)

Measured: T/C

CCC1CN2C(=N1)c1ccccc1-c1cc(Br)ccc12 (configuration not stated)
inactive: dose: 2.5 mg/kg/injection, schedule: Q01DX009 (ip), vehicle: Klucel (hydroxypropylcellulose) (HPC) 104 % of control | dose: 2.5 mg/kg/injection, schedule: Q04DX003 (ip), vehicle: Klucel (hydroxypropylcellulose) (HPC) 100 % of control | dose: 5.0 mg/kg/injection, schedule: Q01DX009 (ip), vehicle: Klucel (hydroxypropylcellulose) (HPC) 98 % of control | dose: 5.0 mg/kg/injection, schedule: Q04DX003 (ip), vehicle: Klucel (hydroxypropylcellulose) (HPC) 100 % of control | dose: 10.0 mg/kg/injection, schedule: Q01DX009 (ip), vehicle: Klucel (hydroxypropylcellulose) (HPC) 116 % of control | dose: 10.0 mg/kg/injection, schedule: Q04DX003 (ip), vehicle: Klucel (hydroxypropylcellulose) (HPC) 96 % of control

CCN(CC)CCCN(C)C(=O)C(O)(c1ccccc1)c1ccccc1
inactive: dose: 25.0 mg/kg/injection, schedule: Q01DX001 (ip), vehicle: saline 102 % of control | dose: 50.0 mg/kg/injection, schedule: Q01DX001 (ip), vehicle: saline 97 % of control | [1] 102 % of control

O=[N+]([O-])c1ccc(C2N=NCCS2)cc1 (configuration not stated)
inactive: dose: 100.0 mg/kg/injection, schedule: Q01DX001 (ip), vehicle: Klucel (hydroxypropylcellulose) (HPC) 98 % of control | dose: 200.0 mg/kg/injection, schedule: Q01DX001 (ip), vehicle: Klucel (hydroxypropylcellulose) (HPC) 104 % of control | dose: 400.0 mg/kg/injection, schedule: Q01DX001 (ip), vehicle: Klucel (hydroxypropylcellulose) (HPC) 95 % of control

Oc1ccc(C2(c3ccc(O)cc3)CCCCC2)cc1
inactive: dose: 25.0 mg/kg/injection, schedule: Q01DX009 (ip), vehicle: alcohol 112 % of control | dose: 50.0 mg/kg/injection, schedule: Q01DX009 (ip), vehicle: alcohol 117 % of control | dose: 100.0 mg/kg/injection, schedule: Q01DX009 (ip), vehicle: alcohol 87 % of control | dose: 100.0 mg/kg/injection, schedule: Q01DX009 (ip), vehicle: saline with Tween-80 89 % of control | dose: 200.0 mg/kg/injection, schedule: Q01DX009 (ip), vehicle: saline with Tween-80 92 % of control

NNC(=O)CNc1ccccc1Br
inactive: [2] 106 % of control | [3] 105 % of control and 110 % of control

CC[C@@H]1O[C@@H]([C@@H]2CC[C@](O)([C@]3(C)CC[C@@H]([C@@H](C)[C@@]4(O)CC[C@H](C)[C@@H](C[C@@]5(O)O[C@@H]([C@@H](C)[C@H](O)C[C@H]6CC[C@H](C)[C@@H]([C@@H](C)C(=O)O)O6)CC[C@@H]5C)O4)O3)O2)CC[C@@]1(C)O
inactive: dose: 0.09 mg/kg/injection, schedule: Q04DX002 (ip), vehicle: saline 93 % of control | dose: 0.19 mg/kg/injection, schedule: Q04DX002 (ip), vehicle: saline 90 % of control | dose: 0.39 mg/kg/injection, schedule: Q04DX002 (ip), vehicle: saline 87 % of control

O=[N+]([O-])c1cc(F)c(F)cc1F
inactive: [4] 98 % of control | [5] 107 % of control

O=C(OCCOc1ccccc1)c1ccc([N+](=O)[O-])cc1
inactive: [1] 100 % of control | [6] 98 % of control | [7] 116 % of control

O=C1CC(c2ccccc2)=CN1c1ccc2ccccc2c1
inactive: [3] 100 % of control | [8] 89 % of control | [9] 100 % of control

COc1ccc(C)cc1NC(=O)C(Br)C(Br)C(=O)O (configuration not stated)
inactive: [10] 100 % of control | [11] 97 % of control | [12] 96 % of control

NC(=O)NC(=O)CCl
inactive: [2] 103 % of control | [3] 109 % of control | [8] 95 % of control

CC(=O)Nc1cccc(N)c1
inactive: dose: 25.0 mg/kg/injection, schedule: Q01DX009 (ip), vehicle: saline 95 % of control | dose: 25.0 mg/kg/injection, schedule: Q04DX003 (ip), vehicle: saline 103 % of control | dose: 50.0 mg/kg/injection, schedule: Q01DX009 (ip), vehicle: saline 108 % of control | dose: 50.0 mg/kg/injection, schedule: Q04DX003 (ip), vehicle: saline 97 % of control | dose: 100.0 mg/kg/injection, schedule: Q01DX009 (ip), vehicle: saline 101 % of control | [3] 86 % of control | dose: 100.0 mg/kg/injection, schedule: Q04DX003 (ip), vehicle: saline 94 % of control | [8] 107 % of control

COc1ccc2c3c(c4cc(OC)c(OC)cc4c2c1)CN1CCC[C@H]1[C@@H]3O
inactive: dose: 0.57 mg/kg/injection, schedule: Q01DX Z (ip), vehicle: water 103 % of control | dose: 0.86 mg/kg/injection, schedule: Q01DX Z (ip), vehicle: water 106 % of control | dose: 1.3 mg/kg/injection, schedule: Q01DX Z (ip), vehicle: water 111 % of control | dose: 2.0 mg/kg/injection, schedule: Q01DX Z (ip), vehicle: water 119 % of control | dose: 9.0 mg/kg/injection, schedule: Q01DX015 (ip), vehicle: acid diluted with saline 118 % of control | dose: 12.0 mg/kg/injection, schedule: Q01DX015 (ip), vehicle: acid diluted with saline 112 % of control

FC(F)(F)c1cccc(NC(=S)SCc2ccc(Cl)cc2)c1
inactive: dose: 15.0 mg/kg/injection, schedule: Q04DX003 (ip), vehicle: saline 102 % of control | dose: 30.0 mg/kg/injection, schedule: Q04DX003 (ip), vehicle: saline 102 % of control | dose: 60.0 mg/kg/injection, schedule: Q04DX003 (ip), vehicle: saline 102 % of control | [3] 87 % of control | [8] 112 % of control

S=C1NC2(CCCCC2)NC12CCCCC2
inactive: [10] 97 % of control | [4] 101 % of control | [11] 98 % of control | [5] 103 % of control | [12] 93 % of control | [13] 101 % of control

CN(C)C=O.CN(C)C=O.[Cl][Sn]([Cl])([Cl])[Cl]
inactive: dose: 50.0 mg/kg/injection, schedule: Q01DX009 (ip), vehicle: Klucel (hydroxypropylcellulose) (HPC) 103 % of control | [10] 93 % of control | [4] 92 % of control | [5] 92 % of control

CC(=O)Nc1ccc(F)c(Cl)c1F
inactive: [3] 121 % of control | [8] 105 % of control | [9] 102 % of control

COc1cc2c(cc1O)CCN(C)C2Cc1ccc(OC)c(OC)c1 (configuration not stated)
inactive: dose: 75.0 mg/kg/injection, schedule: Q01DX001 (ip), vehicle: carboxymethylcellulose (CMC) 95 % of control | dose: 150.0 mg/kg/injection, schedule: Q01DX001 (ip), vehicle: carboxymethylcellulose (CMC) 94 % of control

O=C(O)C1CC12c1ccccc1-c1ccccc12 (configuration not stated)
inactive: [1] 92 % of control | [6] 95 % of control

CC(=O)NS(=O)(=O)c1cc(N)ccc1S(=O)(=O)c1ccc(N)cc1
inactive: [1] 94 % of control | [6] 92 % of control | [7] 92 % of control

Cc1ccc(NC(Nc2ccc(C)c(Cl)c2)C(Cl)(Cl)Cl)cc1Cl
inactive: [10] 96 % of control | [4] 92 % of control | [11] 92 % of control | [5] 118 % of control | [12] 89 % of control | [13] 103 % of control

CC1CCC(C(C)C)C(NCc2cc(Cl)cc(Cl)c2O)C1 (configuration not stated)
inactive: [4] 104 % of control | [5] 101 % of control | [13] 97 % of control

Cc1ccc(/C=C2\CC(C)(C)c3ccccc3C2=O)cc1
inactive: dose: 200.0 mg/kg/injection, schedule: Q04DX003 (ip), vehicle: saline with Tween-80 100 % of control | dose: 400.0 mg/kg/injection, schedule: Q04DX003 (ip), vehicle: saline with Tween-80 93 % of control

CC/C=N\NC
inactive: dose: 5.0 mg/kg/injection, schedule: Q01DX001 (ip), vehicle: saline 111 % of control | dose: 6.6 mg/kg/injection, schedule: Q01DX015 (ip), vehicle: saline 94 % of control | dose: 10.0 mg/kg/injection, schedule: Q01DX001 (ip), vehicle: saline 103 % of control | dose: 10.0 mg/kg/injection, schedule: Q01DX015 (ip), vehicle: saline 94 % of control | dose: 15.0 mg/kg/injection, schedule: Q01DX015 (ip), vehicle: saline 100 % of control | dose: 20.0 mg/kg/injection, schedule: Q01DX001 (ip), vehicle: saline 112 % of control | dose: 22.5 mg/kg/injection, schedule: Q01DX015 (ip), vehicle: saline 95 % of control | dose: 40.0 mg/kg/injection, schedule: Q01DX001 (ip), vehicle: saline 120 % of control

C/C(=N\Nc1c(F)c(F)c(F)c(F)c1F)c1ccccc1
inactive: dose: 100.0 mg/kg/injection, schedule: Q01DX001 (ip), vehicle: saline with Tween-80 105 % of control | dose: 200.0 mg/kg/injection, schedule: Q01DX001 (ip), vehicle: saline with Tween-80 96 % of control | dose: 400.0 mg/kg/injection, schedule: Q01DX001 (ip), vehicle: saline with Tween-80 100 % of control
